Data as given in the supplement of paper PMC10307832.

Experiments:
Experiment in all cases: relative viability (nuclei count vs DMSO), 5 days (fraction); higher = more cells survive
[1] = system: EKVX
Summary of the method: (§1)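 For relative viability, nuclei counts in treated wells were divided by those in vehicle wells. Lung cancer cell lines had been pin-tool dosed in 1536-well plates the day after seeding and cultured for 5 days, then fixed and stained in one step (final 0.05% Triton X-100, 1% formaldehyde, 1 ug/ml Hoechst) and imaged at 4×. Doses were one drug alone or a fixed anchor-drug dose plus five library-drug doses (not always all listed) in √10 steps, and values are duplicate-plate medians.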

[2] = system: HCC-366
Summary of the method: as §1

[3] = system: NCI-H1650
Summary of the method: as §1

[4] = system: NCI-H1975
Summary of the method: as §1

[5] = system: LC-2-ad
Summary of the method: as §1

[6] = system: SK-LU-1
Summary of the method: as §1

[7] = system: HARA
Summary of the method: as §1

[8] = system: COR-L 105
Summary of the method: as §1

[9] = system: NCI-H596
Summary of the method: as §1

[10] = system: RERF-LC-KJ
Summary of the method: as §1

[11] = system: NCI-H3122
Summary of the method: as §1

[12] = system: LU99A
Summary of the method: as §1

[13] = system: COR-L23
Summary of the method: as §1

[14] = system: HCC-827
Summary of the method: as §1

[15] = system: 201T
Summary of the method: as §1

[16] = system: HCC-15
Summary of the method: as §1

[17] = system: NCI-H1755
Summary of the method: as §1

[18] = system: NCI-H1734
Summary of the method: as §1

[19] = system: BEN
Summary of the method: as §1

[20] = system: NCI-H1944
Summary of the method: as §1

[21] = system: NCI-H1993
Summary of the method: as §1

[22] = system: HCC-78
Summary of the method: as §1

[23] = system: LXF-289
Summary of the method: as §1

Work on `Cc1cnc(-c2cnc(NCCNc3ccc(C#N)cn3)nc2-c2ccc(Cl)cc2Cl)[nH]1` + CS(=O)(=O)N1CCN(Cc2cc3nc(-c4cccc5[nH]ncc45)nc(N4CCOCC4)c3s2)CC1 [Pictilisib] (partner 1 µM) yielded a relative viability ([1]; first compound 0.08 µM) of 0.462, a relative viability ([1]; first compound 0.253 µM) of 0.394 and a relative viability ([1]; first compound 0.8 µM) of 0.374. For the same compound, the relative viability ([1]; first compound 2.53 µM) was 0.392, the relative viability ([2]; first compound 0.08 µM) was 0.148 and the relative viability ([2]; first compound 0.253 µM) was 0.128. For the same compound, the relative viability ([2]; first compound 0.8 µM) was 0.119, the relative viability ([2]; first compound 2.53 µM) was 0.132 and the relative viability ([3]; first compound 0.08 µM) was 0.682. It also gave a relative viability ([3]; first compound 0.253 µM) of 0.595, a relative viability ([3]; first compound 0.8 µM) of 0.518 and a relative viability ([3]; first compound 2.53 µM) of 0.597. It also gave a relative viability ([4]; first compound 0.08 µM) of 0.328, a relative viability ([4]; first compound 0.253 µM) of 0.297 and a relative viability ([4]; first compound 0.8 µM) of 0.299. For the same compound, the relative viability ([4]; first compound 2.53 µM) was 0.338, the relative viability ([5]; first compound 0.08 µM) was 0.489 and the relative viability ([5]; first compound 0.8 µM) was 0.441. It also gave a relative viability ([5]; first compound 2.53 µM) of 0.468, a relative viability ([6]; first compound 0.08 µM) of 0.701 and a relative viability ([6]; first compound 0.253 µM) of 0.604. It also gave a relative viability ([6]; first compound 0.8 µM) of 0.623, a relative viability ([6]; first compound 2.53 µM) of 0.754 and a relative viability ([7]; first compound 0.08 µM) of 0.398. The relative viability ([7]; first compound 0.253 µM) was 0.414, the relative viability ([7]; first compound 0.8 µM) was 0.433 and the relative viability ([7]; first compound 2.53 µM) was 0.454. It also gave a relative viability ([8]; first compound 0.08 µM) of 0.344, a relative viability ([8]; first compound 0.253 µM) of 0.468 and a relative viability ([8]; first compound 0.8 µM) of 0.176. The relative viability ([8]; first compound 2.53 µM) was 0.385, the relative viability ([9]; first compound 0.08 µM) was 0.424 and the relative viability ([9]; first compound 0.253 µM) was 0.397. For the same compound, the relative viability ([9]; first compound 0.8 µM) was 0.391, the relative viability ([9]; first compound 2.53 µM) was 0.435 and the relative viability ([10]; first compound 0.08 µM) was 0.662. It also gave a relative viability ([10]; first compound 0.253 µM) of 0.496, a relative viability ([10]; first compound 0.8 µM) of 0.497 and a relative viability ([10]; first compound 2.53 µM) of 0.548. It also gave a relative viability ([11]; first compound 0.08 µM) of 0.65, a relative viability ([11]; first compound 0.253 µM) of 0.64 and a relative viability ([11]; first compound 0.8 µM) of 0.646. For the same compound, the relative viability ([11]; first compound 2.53 µM) was 0.763, the relative viability ([12]; first compound 0.08 µM) was 0.314 and the relative viability ([12]; first compound 0.253 µM) was 0.348. It also gave a relative viability ([12]; first compound 0.8 µM) of 0.348, a relative viability ([12]; first compound 2.53 µM) of 0.41 and a relative viability ([13]; first compound 0.08 µM) of 0.901. The relative viability ([13]; first compound 0.253 µM) was 0.683, the relative viability ([13]; first compound 0.8 µM) was 0.944 and the relative viability ([13]; first compound 2.53 µM) was 0.755. For the same compound, the relative viability ([14]; first compound 0.08 µM) was 1.02, the relative viability ([14]; first compound 0.8 µM) was 0.951 and the relative viability ([14]; first compound 2.53 µM) was 0.813. It also gave a relative viability ([15]; first compound 0.08 µM) of 0.713, a relative viability ([15]; first compound 0.253 µM) of 0.629 and a relative viability ([15]; first compound 0.8 µM) of 0.724. For the same compound, the relative viability ([15]; first compound 2.53 µM) was 0.723, the relative viability ([16]; first compound 0.08 µM) was 0.681 and the relative viability ([16]; first compound 0.253 µM) was 0.669. The relative viability ([16]; first compound 0.8 µM) was 0.746, the relative viability ([16]; first compound 2.53 µM) was 0.739 and the relative viability ([17]; first compound 0.08 µM) was 0.507. It also gave a relative viability ([17]; first compound 0.253 µM) of 0.411, a relative viability ([17]; first compound 0.8 µM) of 0.386 and a relative viability ([17]; first compound 2.53 µM) of 0.559. The relative viability ([18]; first compound 0.08 µM) was 0.548, the relative viability ([18]; first compound 0.253 µM) was 0.43 and the relative viability ([18]; first compound 0.8 µM) was 0.432. The relative viability ([18]; first compound 2.53 µM) was 0.522, the relative viability ([19]; first compound 0.08 µM) was 0.572 and the relative viability ([19]; first compound 0.253 µM) was 0.596. For the same compound, the relative viability ([19]; first compound 0.8 µM) was 0.612, the relative viability ([19]; first compound 2.53 µM) was 0.648 and the relative viability ([20]; first compound 0.08 µM) was 0.342. For the same compound, the relative viability ([20]; first compound 0.8 µM) was 0.334, the relative viability ([20]; first compound 2.53 µM) was 0.38 and the relative viability ([21]; first compound 0.08 µM) was 0.92. The relative viability ([21]; first compound 0.253 µM) was 0.911, the relative viability ([21]; first compound 0.8 µM) was 0.87 and the relative viability ([21]; first compound 2.53 µM) was 0.806. It also gave a relative viability ([22]; first compound 0.08 µM) of 0.198, a relative viability ([22]; first compound 0.253 µM) of 0.253 and a relative viability ([22]; first compound 0.8 µM) of 0.233. It also gave a relative viability ([22]; first compound 2.53 µM) of 0.308, a relative viability ([23]; first compound 0.08 µM) of 0.841 and a relative viability ([23]; first compound 0.253 µM) of 0.745. For the same compound, the relative viability ([23]; first compound 0.8 µM) was 0.845 and the relative viability ([23]; first compound 2.53 µM) was 0.877.
